Measured values as given in article PMC4926499, “TSPO Ligand-Methotrexate Prodrug Conjugates: Design, Synthesis, and Biological Evaluation” (International Journal of Molecular Sciences, 2016).
Like-named read-outs stand apart in the source and are kept apart here.

What was measured:
TSPO [1] = molecular target: T1, TSPO (Rattus norvegicus, UniProt P16257); settings: cited from earlier work
T1 construct: were assessed to membrane preparations from rat cerebral cortex as described previously; from tissue; host or cells: rat cerebral cortex membranes

[2] = molecular target: central-type benzodiazepine receptor (CBR); settings: rat cerebral cortex membranes, [3H]flunitrazepam; cited from earlier work
RG2 rat glioma cells = assay: Cytotoxicity by MTT assay, RG2 cells; format: cell-based; settings: Glioma cell, 24 h exposure
Excerpt: (§1) These cellular lines were selected for their high expression level of TSPO and, therefore, have been used extensively for in vitro experiments on the brain tumor models and for cytotoxicity studies relating to anticancer drugs, as well as TSPO-ligands and its nanodevices. The tested compounds show high cytotoxicity on all cell lines, especially for C6 rat glioma cells. In particular, the TSPO-ligand MTX α-conjugates 3 appears to be the most cytotoxic displaying a lower IC50 value compared to MTX on C6 cells.
(§2) Rat RG2 and C6 glioma cells were grown in DMEM (Dulbecco’s modified Eagle’s medium, Sigma Aldrich, Milano, Italy) nutrient supplemented with 10% heat inactivated FBS (Fetal Bovine Serum, Sigma Aldrich), 2 mM, L-glutamine, penicillin (100 U/mL), and streptomycin (100 µg/mL) at 37 °C in a humidified 5% CO2 atmosphere. Cells were fed every day and seeded in 96-well plates at a density of ~5000 cells/well for assays. MTX and TSPO ligand-MTX conjugates were dissolved in DMSO at initial concentrations of 1000 µg/mL and then diluted with medium. Cells were exposed to different concentrations of compounds (0.1–1000 nM) for 24 h.
(§3) Cell viability was evaluated by MTT (3-(4,5-dimethylthiazol-2-yl)-2,5-diphenyltetrazolium bromide) assay as previously described. In brief, 10 µL of MTT (5.0 mg/mL) was added to the cells and cultured at 37 °C, in a humidified 5% CO2 atmosphere for 2 h. After this period, medium was removed and the cells were replaced with 150 µL of a DMSO/ethanol (1:1) solution per well. The absorbance of the individual well was measured by microplate reader (Wallac Victor3, 1420 Multilabel Counter, Perkin-Elmer (Waltham, MA, USA). All experiments were repeated three times and each compound’s concentration was tested in triplicate.

[3] = Stability in diluted rat serum solution (50% v/v) at 37 °C; format: in vitro ADME; settings: diluted rat serum (50% v/v), pH 7.4, 50% v/v rat serum, pH 7.4, 37 °C, read-out: t1/2 (h) Diluted Rat Serum
Description: (§4) The chemical stability of the TSPO-ligand MTX conjugates 3 and 4 was evaluated in 50 mM phosphate buffer solution at pH 7.4 and 37 °C; the physiological stability was also determined using a dilute rat serum solution (50% v/v) at 37 °C. The aim of this work is the synthesis of TSPO ligand-MTX conjugates in order to improve the plasma stability and having less side effects than MTX. In addition TSPO ligand-MTX conjugates could enhance the transport across BBB and due a tumor targeting effect for the TSPO moiety, might selectively deliver the antineoplastic agent to brain tumors and prolong its efficacy. The TSPO-ligand MTX conjugates 3 and 4 are stable in buffer solution at pH 7.4 and enough stable in physiological medium with their half-lives exceeding 3 h. […] In addition, CB86 (m/z = 407, [M + Na]^+) (Figure 1), most likely originating from the degradation of ligand 2, as previously shown, could be detected. Other products arising from the further degradation of the anticancer drug were found.
The TSPO ligand-MTX conjugates 3 and 4 stabilities in physiological medium were studied at 37 °C in 0.05 M phosphate buffer and 0.14 M NaCl at pH 7.4, containing 50% v/v of rat serum. […] Samples were centrifuged at 3500 rpm for 10 min, and the supernatant was removed, filtered through cellulose acetate membranes (0.22 µm, Advantec MFS) and then 20 µL of filtrates were immediately analyzed by HPLC. […]

TSPO [4] = molecular target: T1, TSPO; assay: Radioligand binding assay, displacement of [3H]-PK 11195 from rat cerebral cortex membranes; settings: for SI (selectivity index): IC50(CBR)/IC50(TSPO); for IC50: rat cerebral cortex membranes, [3H]-PK 11195
Description: (§5) The IC50 values were determined from the displacement curves using the reference compound [^3H]-PK 11195, for TSPO, or [^3H]flunitrazepam for CBR. The data obtained, expressed as IC50 values, as well as the ratios between CBR and TSPO affinity, respectively (Selectivity Index, SI), as a measure of the in vitro selectivity, are shown in Table 2 and were compared with unlabeled TSPO selective ligand PK 11195, and with CBR selective ligand flunitrazepam. […] Moreover, the SI of TSPO-ligand MTX conjugate 3 is similar to the reference compound PK 11195. […] Thus, the binding quantification of TSPO ligands is confounded by the expression of different forms of TSPO and to assess the potentially therapeutic use of TSPO-ligands would be appropriate to genetically test the patients.
(§6) Binding assays ([^3H]Flunitrazepam and [^3H]PK 11195 bindings) were assessed to membrane preparations from rat cerebral cortex as described previously. The IC50 values (GraphPad Prism software, (La Jolla, CA, USA)) were determined from the displacement curves using the reference compound [^3H]-PK11195, for TSPO or [^3H]flunitrazepam, for CBR, respectively. The selectivity index (SI) was calculated from: IC50(CBR)/IC50(TSPO).

[5] = Transport across MDCKII-MDR1 cell monolayer; settings: dog, MDCK-MDR1, pH 7.4
Description: (§7) The apparent permeability coefficient (Papp) of each compound was calculated on the basis of the amounts permeated through MDCKII-MDR1 monolayer by the equation: Papp=VA dC/A[D]in dt where VA (dC/dt) is the linear appearance rate of mass in the receiver solution; A is the filter/cell surface area and [D]in is the initial tested compound concentration in the apical (AP) chamber. The Papp values were evaluated in apical to basolateral direction. […] On an experimental day, the integrity of the cell monolayer was assessed by measuring the transendothelial electrical resistance (TEER) value.
(§8) The bi-directional transport study was conducted as previously reported [15]. A Transwell® 12 plate consisting of differentiated MDCKII-MDR1cells plated on polyester microporous filters (12 mm diameter, 0.4 µm pore size, 0.5 mL apical volume, 1.5 mL basolateral volume) at a density of 100,000 cells/cm^2, was used for the permeability assay. The integrity of the cell monolayer was assessed by measuring the TEER value in each well, using an epithelial volt-ohm meter (EVOM). Cell monolayers with TEER 120–140 Ohm/cm^2 were used. […] Fresh assay medium was placed in the receiver compartment. […] After incubation time of 2 h, samples were removed from the apical side of the monolayer and then analyzed. […] All experiments were repeated three times and each compound was tested in triplicate.

SF188 human glioma cells = assay: Cytotoxicity by MTT assay, SF188 cells; format: cell-based; settings: SF-188
[6] = Chemical stability in 50 mM phosphate buffer pH 7.4 at 37 °C; format: physicochemical; settings: 0.05 M phosphate buffer pH 7.4, 37 °C; read-out: t1/2 (h) PBS (converted)
Description: as §4
TSPO ligand-MTX conjugates 3 and 4 chemical stabilities were studied at pH 7.4 in 0.05 M phosphate buffer at 37 °C. […] At appropriate time intervals, aliquots of 100 µL of each sample were removed, filtered through cellulose acetate membranes (0.22 µm, Advantec MFS, Pleasanton, CA, USA), and then 20 µL of filtrates were immediately analyzed by HPLC. […]

C6 rat glioma cells = assay: Cytotoxicity by MTT assay, C6 cells; format: cell-based; settings: Glioma cell, 24 h exposure
Excerpt: as §1, §2, §3

[7] = molecular target: central-type benzodiazepine receptor (CBR); assay: Radioligand binding assay, displacement of [3H]flunitrazepam from rat cerebral cortex membranes
Description: as §5, §6

SF126 human glioma cells = assay: Cytotoxicity by MTT assay, SF126 cells; format: cell-based; settings: SF-126
in vitro = settings: dog, MDCK-MDR1, pH 7.4
Description: as §7, §8

For CCCN(CCC)C(=O)Cc1c(-c2ccc(Cl)cc2)nc2c(NC(=O)CN)cccn12 [Compound 2, N,N-dipropyl-[2-(8-(2-aminoacetamido)-2-(4-chlorophenyl)imidazo[1,2-a]pyridin-3-yl)]acetamide], which “SI (selectivity index)” value (TSPO [1]; IC50(CBR)/IC50(TSPO)) is on record?
Its value is >4.1 × 10^3.

And the IC50 (TSPO [1]; read-out: IC50 (nM) TSPO Cortex, rat cerebral cortex membranes, [3H]-PK 11195)?
The IC50 was 24 ± 4.2 nM.

And the IC50 [2]?
Its IC50 is > 100000 nM.

What does the source list for CCCN(CCC)C(=O)Cc1c(-c2ccc(Cl)cc2)nc2c(NC(=O)CNC(=O)C(CCC(=O)O)NC(=O)c3ccc(N(C)Cc4cnc5nc(N)nc(N)c5n4)cc3)cccn12 (centres unmarked) [Compound 3, 5-(2-(2-(4-Chlorophenyl)-3-(2-(dipropylamino)-2-oxoethyl)imidazo[1,2-a]pyridin-8-ylamino)-2-oxoethylamino)-4-(4-(((2,4-diaminopteridin-6-yl)methyl)(methyl)amino)benzamido)-5-oxopentanoic acid]?
IC50 (RG2 rat glioma cells): 4.2 ± 3.2 nM; half-life [3]: > 3 h; SI (selectivity index) (TSPO [4]): >1.4 × 10^4; IC50 (TSPO [4]): 7.2 ± 2.1 nM; Papp at 2 h, 75 µM [5]: 3.65 ×10⁻⁶ cm/s; IC50 (SF188 human glioma cells): 9.2 ± 3.4 nM; half-life [6]: 144 ± 25 h; IC50 (C6 rat glioma cells): 1.2 ± 0.7 nM; IC50 [7]: > 100000 nM; IC50 (SF126 human glioma cells): 14.2 ± 4.2 nM; melting point: 210 °C (dec.)

With CCCN(CCC)C(=O)Cc1c(-c2ccc(Cl)cc2)nc2c(NC(=O)CNC(=O)CCC(NC(=O)c3ccc(N(C)Cc4cnc5nc(N)nc(N)c5n4)cc3)C(=O)O)cccn12 (centres unmarked) [Compound 4, 5-(2-(2-(4-Chlorophenyl)-3-(2-(dipropylamino)-2-oxoethyl)imidazo[1,2-a]pyridin-8-ylamino)-2-oxoethylamino)-2-(4-(((2,4-diaminopteridin-6-yl)methyl)(methyl)amino)benzamido)-5-oxopentanoic acid] as the compound, how does the IC50 (RG2 rat glioma cells) read?
Its IC50 is 15.2 ± 2.9 nM.

And the half-life [3]?
The half-life was > 3 h.

What about the “SI (selectivity index)” value (TSPO [4]) of the same compound?
Its value is >2.5 × 10^3.

And the IC50 (TSPO [4])?
Its IC50 is 40.3 ± 3.8 nM.

What about the Papp at 2 h, 75 µM [5] of the same compound?
The Papp at 2 h, 75 µM was 3.32 ×10⁻⁶ cm/s.

What about the IC50 (SF188 human glioma cells) of the same compound?
Its IC50 is 18.2 ± 2 nM.

And the half-life [6]?
The half-life was 74 ± 12 h.

What about the IC50 (C6 rat glioma cells) of the same compound?
The IC50 was 2.2 ± 0.6 nM.

What about the IC50 [7] of the same compound?
The IC50 was > 100000 nM.

What about the IC50 (SF126 human glioma cells) of the same compound?
Its IC50 is 25 ± 2.6 nM.

And the melting point?
Its melting point is 190 °C (dec.).

Which IC50 [2] does the source give for CN1C(=O)CN=C(c2ccccc2F)c2cc([N+](=O)[O-])ccc21 [Flunitrazepam] here?
Its IC50 is 5.1 ± 0.5 nM.

Which IC50 (RG2 rat glioma cells) does the source give for CN(Cc1cnc2nc(N)nc(N)c2n1)c1ccc(C(=O)N[C@@H](CCC(=O)O)C(=O)O)cc1 [MTX, 2,4-diamino-N^10-methylpteroylglutamic acid, reference compound] here?
Its IC50 is 3.8 ± 1.5 nM.

And the IC50 (SF188 human glioma cells)?
Its IC50 is 1.2 ± 0.2 nM.

And the Papp at 2 h, 75 µM (in vitro)?
Its Papp at 2 h, 75 µM is 0.091 ×10⁻⁶ cm/s.

What about the IC50 (C6 rat glioma cells) of the same compound?
Its IC50 is 2.6 ± 0.8 nM.

And the IC50 (SF126 human glioma cells)?
Its IC50 is 1.2 ± 0.3 nM.

With CCC(C)N(C)C(=O)c1cc2ccccc2c(-c2ccccc2Cl)n1 (centres unmarked) [PK11195] as the compound, how does the IC50 [2] read?
The IC50 was > 100000 nM.
